{"source": "patent US9920347B2", "about": "“Methods for producing virus particles with simplified glycosylation of surface proteins” (priority 2010, dated 2018)", "origin": "cited, not measured here", "key": {"[1]": {"system": "animal Golgi enzyme, mannosidase I"}, "[2]": {"biological_target": "alpha-glucosidase amyloglucosidase (Aspergillus niger, UniProt P69328)", "sequence (P69328 25-640)": "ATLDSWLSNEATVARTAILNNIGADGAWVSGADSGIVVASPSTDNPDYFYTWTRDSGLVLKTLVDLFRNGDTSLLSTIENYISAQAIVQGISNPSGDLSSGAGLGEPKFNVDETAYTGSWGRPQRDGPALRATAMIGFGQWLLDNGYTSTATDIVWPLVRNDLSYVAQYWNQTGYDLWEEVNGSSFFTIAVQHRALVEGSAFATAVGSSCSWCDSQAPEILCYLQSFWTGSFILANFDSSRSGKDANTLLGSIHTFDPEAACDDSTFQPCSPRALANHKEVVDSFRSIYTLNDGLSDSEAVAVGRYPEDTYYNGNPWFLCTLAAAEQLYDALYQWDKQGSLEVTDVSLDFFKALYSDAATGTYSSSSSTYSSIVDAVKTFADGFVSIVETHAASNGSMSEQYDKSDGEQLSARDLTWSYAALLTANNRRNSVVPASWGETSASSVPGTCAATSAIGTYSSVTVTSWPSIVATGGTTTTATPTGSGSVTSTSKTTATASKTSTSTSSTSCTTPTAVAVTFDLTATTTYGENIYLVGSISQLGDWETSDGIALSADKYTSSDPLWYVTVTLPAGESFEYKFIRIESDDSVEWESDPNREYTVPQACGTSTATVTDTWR", "conditions": "read-out: concentration giving 50% inhibition of amyloglucosidase"}, "intact cells": {"system": "intact cells", "conditions": "glycoproteins with Man7-9(GlcNAc)2 structures accumulate"}, "Golgi mannosidase II": {"biological_target": "T1, Golgi mannosidase II (Homo sapiens, UniProt Q16706)", "T1 sequence (Q16706 1-1144)": "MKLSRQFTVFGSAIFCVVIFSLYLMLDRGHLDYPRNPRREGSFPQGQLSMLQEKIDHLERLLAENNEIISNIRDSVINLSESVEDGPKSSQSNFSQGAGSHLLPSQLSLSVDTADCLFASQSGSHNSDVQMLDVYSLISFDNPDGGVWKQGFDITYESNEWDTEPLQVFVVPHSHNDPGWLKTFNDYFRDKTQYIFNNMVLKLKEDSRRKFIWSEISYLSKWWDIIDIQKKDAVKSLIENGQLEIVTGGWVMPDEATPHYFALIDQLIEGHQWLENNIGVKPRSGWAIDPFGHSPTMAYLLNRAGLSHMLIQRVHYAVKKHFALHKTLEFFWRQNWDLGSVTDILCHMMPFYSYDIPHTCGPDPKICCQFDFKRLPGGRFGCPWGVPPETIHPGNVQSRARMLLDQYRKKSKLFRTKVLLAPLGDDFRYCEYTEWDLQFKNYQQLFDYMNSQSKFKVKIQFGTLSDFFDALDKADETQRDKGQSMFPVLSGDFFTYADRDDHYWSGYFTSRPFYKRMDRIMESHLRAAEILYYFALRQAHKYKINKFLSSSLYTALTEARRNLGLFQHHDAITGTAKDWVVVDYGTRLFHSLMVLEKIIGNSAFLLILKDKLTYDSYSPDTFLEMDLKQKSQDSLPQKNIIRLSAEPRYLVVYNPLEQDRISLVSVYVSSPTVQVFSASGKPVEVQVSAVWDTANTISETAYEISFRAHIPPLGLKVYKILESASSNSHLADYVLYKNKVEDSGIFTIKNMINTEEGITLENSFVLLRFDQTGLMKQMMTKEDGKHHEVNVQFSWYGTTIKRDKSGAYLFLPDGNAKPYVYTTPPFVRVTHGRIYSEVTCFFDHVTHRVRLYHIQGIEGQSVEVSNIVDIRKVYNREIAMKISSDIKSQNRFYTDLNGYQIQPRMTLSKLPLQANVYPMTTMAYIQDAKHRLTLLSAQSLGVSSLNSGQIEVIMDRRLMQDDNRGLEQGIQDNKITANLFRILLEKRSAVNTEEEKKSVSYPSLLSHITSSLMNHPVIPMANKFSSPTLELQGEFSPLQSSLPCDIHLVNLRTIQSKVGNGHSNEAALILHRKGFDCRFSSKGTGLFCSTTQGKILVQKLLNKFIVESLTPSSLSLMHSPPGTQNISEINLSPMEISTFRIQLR"}, "[3]": {"system": "rat epididymal α-mannosidase"}}}
{"smiles": "O=C1N[C@@H]2[C@@H](O)[C@@H](O)[C@H](O)[C@@H](CO)N2C1=O", "note": "[Kifunensine]", "values": [{"measurement": "inhibition of mannosidase I", "setting": "[1]", "value": "inhibits"}, {"measurement": "shift of N-linked oligosaccharides from complex chains to Man9(GlcNAc)2 structures", "setting": "cultured mammalian cells; 1 μg/ml or higher", "value": "complete shift"}]}
{"smiles": "OC[C@@H]1[C@@H](O)[C@H](O)[C@H]2[C@@H](O)CCN21", "note": "[Australine]", "values": [{"measurement": "inhibition of beta-mannosidase", "setting": "beta-mannosidase", "value": "did not inhibit"}, {"measurement": "inhibition of alpha-galactosidase", "setting": "alpha-galactosidase", "value": "did not inhibit"}, {"measurement": "inhibition of beta-galactosidase", "setting": "beta-galactosidase", "value": "did not inhibit"}, {"measurement": "IC50", "setting": "[2]", "value": 5.8, "unit": "µM"}, {"measurement": "inhibition of beta-glucosidase", "setting": "beta-glucosidase", "value": "did not inhibit"}, {"measurement": "inhibition of alpha-mannosidase", "setting": "alpha-mannosidase", "value": "did not inhibit"}]}
{"smiles": "OC[C@H]1NC[C@@H](O)[C@@H](O)[C@@H]1O", "note": "[Deoxymannojirimycin]", "values": [{"measurement": "effect on synthesis of complex types of N-linked oligosaccharides", "setting": "intact cells", "value": "blocked the synthesis of complex types of N-linked oligosaccharides"}, {"measurement": "inhibition of rat liver mammosidase I", "setting": "rat liver mammosidase I", "value": "fairly potent inhibitor"}, {"measurement": "prevention of formation of complex chains", "setting": "cultured mammalian cells; 50 μg/ml", "value": "does not prevent the formation of all complex chains"}]}
{"smiles": "O[C@H]1[C@H]2[C@H](O)CCCN2C[C@H]1O", "note": "[Swainsonine]", "values": [{"measurement": "effect on mannosidase 1", "setting": "mannosidase 1", "value": "no effect"}, {"measurement": "inhibition of Golgi mannosidase II", "setting": "Golgi mannosidase II", "value": "potent inhibitor"}]}
{"smiles": "CS[C@@H]1[C@@H](N)[C@@H](O)[C@@H](O)[C@H]1O", "note": "[Mannostatin A]", "values": [{"measurement": "inhibition of rat epididymal α-mannosidase", "setting": "[3]", "value": "potent inhibitor"}]}
{"smiles": "O[C@H]1[C@H](O)[C@@H](O)CN2CC[C@H](O)[C@H]12", "note": "[Castanospermine]", "values": [{"measurement": "inhibition of alpha-glucosidase activities", "setting": "alpha-glucosidase", "value": "inhibits"}, {"measurement": "inhibition of dengue virus infection", "setting": "dengue virus", "value": "inhibits"}]}
